Results taken from US9833497B2, “Human originated EGF domain proteins and use of the same” (CHENGDU SOURCEBIO LIMITED-LIABILITY COMPANY, priority 2013, dated 2017).

Key:
Assay type in all cases: cell-based
Proteus mirabilis = experiment: MIC against Gram-negative bacteria: Proteus mirabilis; settings: for MIC against P. mirabilis: Proteus mirabilis
Summary of the method: (§1)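 Growth inhibition by human EGF domain proteins was scored in LB liquid culture seeded at 5×10^5 CFU/mL. Protein was applied as a two-fold dilution series in triplicate, with shaking incubation at 37° C; MIC is the lowest concentration giving no growth.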

Citrobacter diversus = experiment: MIC against Gram-negative bacteria: Citrobacter diversus; settings: for MIC against C. diversus: Citrobacter diversus
Summary of the method: as §1

Enterobacter cloacae = experiment: MIC against Gram-negative bacteria: Enterobacter cloacae; settings: for MIC against E. cloacae: Enterobacter cloacae
Summary of the method: as §1

Proteus vulgaris = experiment: MIC against Gram-negative bacteria: Proteus vulgaris; settings: for MIC against P. vulgaris: Proteus vulgaris
Summary of the method: as §1

Aeromonas hydrophila = experiment: MIC against Gram-negative bacteria: Aeromonas hydrophila; settings: for MIC against A. hydrophila: Aeromonas hydrophila
Summary of the method: as §1

Serratia marcescens = experiment: MIC against Gram-negative bacteria: Serratia marcescens; settings: for MIC against S. marcescens: Serratia marcescens
Summary of the method: as §1

Klebsiella pneumonia = experiment: MIC against Gram-negative bacteria: Klebsiella pneumonia; settings: for MIC against K. pneumonia: Klebsiella pneumonia
Summary of the method: as §1

Moraxella catarrhalis = experiment: MIC against Gram-negative bacteria: Moraxella catarrhalis; settings: for MIC against M. catarrhalis: Moraxella catarrhalis
Summary of the method: as §1

Pseudomonas aeruginosa = experiment: MIC against Gram-negative bacteria: Pseudomonas aeruginosa; settings: for MIC against P. aeruginosa: Pseudomonas aeruginosa
Summary of the method: as §1

E. coli DH5α = experiment: Antibacterial activity: MIC and growth curve against E. coli DH5α in 96-well plate; settings: minimal inhibitory concentration against E. coli DH5α; 96-well plate, 5×10^5 CFU/mL, 37° C., judged after 8 h
Summary of the method: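 Log-phase bacteria (OD600 ~0.5) resuspended in LB at 5×10^5 CFU/mL, exposed to recombinant protein at 50, 25, 12.5 μg/mL final in triplicate, 37 °C shaking at 175 rpm. OD600 read every 30 min; MIC is lowest concentration showing no growth.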

E. coli BL21 = experiment: MIC against Gram-negative bacteria: E. coli BL21
Summary of the method: as §1

[1] = 96-well plate, 5×10^5 CFU/mL, 37° C., 10 h
[2] = P. mirabilis, 10 h cultivation at 37° C., 5×10^5 CFU/mL
[3] = C. diversus, 10 h cultivation at 37° C., 5×10^5 CFU/mL
[4] = E. cloacae, 10 h cultivation at 37° C., 5×10^5 CFU/mL
[5] = P. vulgaris, 10 h cultivation at 37° C., 5×10^5 CFU/mL
[6] = A. hydrophila, 10 h cultivation at 37° C., 5×10^5 CFU/mL
[7] = S. marcescens, 10 h cultivation at 37° C., 5×10^5 CFU/mL
[8] = K. pneumonia, 10 h cultivation at 37° C., 5×10^5 CFU/mL
[9] = M. catarrhalis, 10 h cultivation at 37° C., 5×10^5 CFU/mL
[10] = P. aeruginosa, 10 h cultivation at 37° C., 5×10^5 CFU/mL
[11] = E. coli BL21, 10 h cultivation at 37° C., 5×10^5 CFU/mL
[12] = 5×10^5 CFU/mL, 10 h cultivation at 37° C.
[13] = E. coli BL21, 5×10^5 CFU/mL, 10 h cultivation at 37° C.
[14] = E. coli BL21, 96-well plate, 5×10^5 CFU/mL, 37° C., 10 h
[15] = P. mirabilis, 10 h cultivation at 37° C.
[16] = C. diversus, 10 h cultivation at 37° C.
[17] = E. cloacae, 10 h cultivation at 37° C.
[18] = P. vulgaris, 10 h cultivation at 37° C.
[19] = A. hydrophila, 10 h cultivation at 37° C.
[20] = S. marcescens, 10 h cultivation at 37° C.
[21] = K. pneumonia, 10 h cultivation at 37° C.
[22] = M. catarrhalis, 10 h cultivation at 37° C.
[23] = P. aeruginosa, 10 h cultivation at 37° C.
[24] = E. coli BL21, 10 h cultivation at 37° C.
[25] = 10 h cultivation at 37° C., 5×10^5 CFU/mL, two-fold serial dilution

PRT644 (DINECQLQGVCPNGECLNTMGSYRCTCKIGFGPDPTFS; listed as Homo sapiens)
50 µg/mL: MIC K. pneumonia (Klebsiella pneumonia; [1]) | MIC M. catarrhalis (Moraxella catarrhalis; [1])
100 µg/mL: MIC P. vulgaris (Proteus vulgaris; [1])
25 µg/mL: MIC P. mirabilis (Proteus mirabilis; [1]) | MIC C. diversus (Citrobacter diversus; [1]) | MIC E. cloacae (Enterobacter cloacae; [1]) | MIC S. marcescens (Serratia marcescens; [1]) | MIC P. aeruginosa (Pseudomonas aeruginosa; [1]) | MIC (E. coli DH5α)
12.5 µg/mL: MIC A. hydrophila (Aeromonas hydrophila; [1]) | MIC E. coli BL21 (E. coli BL21; [1])

PRT425 (DVDECAMGTHTCQPGFLCQNTKGSFYCQARQRCMDGFLQDPEGNCV; listed as Homo sapiens)
12.5 µg/mL: MIC (Enterobacter cloacae; [4]) | MIC (Proteus vulgaris; [5]) | MIC (Moraxella catarrhalis; [9]) | MIC (E. coli DH5α)
25 µg/mL: MIC (Aeromonas hydrophila; [6]) | MIC (Klebsiella pneumonia; [8]) | MIC (E. coli BL21; [11])
50 µg/mL: MIC (Proteus mirabilis; [2]) | MIC (Citrobacter diversus; [3]) | MIC (Serratia marcescens; [7]) | MIC (Pseudomonas aeruginosa; [10])

PRT399 (DVDECRMLAHLCAHGECINSLGSFRCHCQAGYTPDATATTCL; listed as Homo sapiens)
50 µg/mL: MIC (Proteus vulgaris; [5]) | MIC (Aeromonas hydrophila; [6]) | MIC (Klebsiella pneumonia; [8]) | MIC (Moraxella catarrhalis; [9]) | MIC (E. coli BL21; [11])
12.5 µg/mL: MIC (Proteus mirabilis; [2]) | MIC (Citrobacter diversus; [3]) | MIC (Enterobacter cloacae; [4]) | MIC (Serratia marcescens; [7]) | MIC (Pseudomonas aeruginosa; [10]) | MIC (E. coli DH5α)

PRT1355 (AELSCPNDCHGQGRCVNGQCVCHEGFMGKDCK; listed as Homo sapiens)
50 µg/mL: MIC against C. diversus (Citrobacter diversus; [12]) | MIC against E. cloacae (Enterobacter cloacae; [12]) | MIC against P. vulgaris (Proteus vulgaris; [12]) | MIC (E. coli DH5α)
12.5 µg/mL: MIC against A. hydrophila (Aeromonas hydrophila; [12]) | MIC against M. catarrhalis (Moraxella catarrhalis; [12]) | MIC against P. aeruginosa (Pseudomonas aeruginosa; [12])
25 µg/mL: MIC against P. mirabilis (Proteus mirabilis; [12]) | MIC against S. marcescens (Serratia marcescens; [12]) | MIC against K. pneumonia (Klebsiella pneumonia; [12]) | MIC against E. coli BL21 (E. coli BL21; [13])

PRT1201 (DIDECALRTHTCWNDSACINLAGGFDCLCPSGPSCS; listed as Homo sapiens)
12.5 µg/mL: MIC against C. diversus (Citrobacter diversus; [1]) | MIC against P. vulgaris (Proteus vulgaris; [1]) | MIC against P. aeruginosa (Pseudomonas aeruginosa; [1]) | MIC (E. coli DH5α)
50 µg/mL: MIC against E. cloacae (Enterobacter cloacae; [1]) | MIC against M. catarrhalis (Moraxella catarrhalis; [1]) | MIC against E. coli BL21 (E. coli BL21; [14])
25 µg/mL: MIC against P. mirabilis (Proteus mirabilis; [1]) | MIC against A. hydrophila (Aeromonas hydrophila; [1]) | MIC against S. marcescens (Serratia marcescens; [1]) | MIC against K. pneumonia (Klebsiella pneumonia; [1])

PRT597 (CDCNRAGTQKPICDPDTGMCRCREGVSGQRCDRCARGHSQEFPTCLQ; listed as Homo sapiens)
25 µg/mL: MIC C. diversus (Citrobacter diversus; [1]) | MIC E. cloacae (Enterobacter cloacae; [1]) | MIC P. vulgaris (Proteus vulgaris; [1]) | MIC (E. coli DH5α)
12.5 µg/mL: MIC S. marcescens (Serratia marcescens; [1]) | MIC K. pneumonia (Klebsiella pneumonia; [1]) | MIC M. catarrhalis (Moraxella catarrhalis; [1]) | MIC E. coli BL21 (E. coli BL21; [1])
50 µg/mL: MIC P. mirabilis (Proteus mirabilis; [1]) | MIC A. hydrophila (Aeromonas hydrophila; [1]) | MIC P. aeruginosa (Pseudomonas aeruginosa; [1])

PRT738 (FHTRCEEDNGGCSHLCLLSPSEPFYTCACPTGVQLQDNGRTCK; listed as Homo sapiens)
12.5 µg/mL: MIC C. diversus (Citrobacter diversus; [1]) | MIC E. cloacae (Enterobacter cloacae; [1]) | MIC E. coli BL21 (E. coli BL21; [1])
25 µg/mL: MIC P. vulgaris (Proteus vulgaris; [1]) | MIC S. marcescens (Serratia marcescens; [1]) | MIC M. catarrhalis (Moraxella catarrhalis; [1]) | MIC P. aeruginosa (Pseudomonas aeruginosa; [1])
50 µg/mL: MIC P. mirabilis (Proteus mirabilis; [1]) | MIC A. hydrophila (Aeromonas hydrophila; [1]) | MIC K. pneumonia (Klebsiella pneumonia; [1]) | MIC (E. coli DH5α)

PRT1481 (PVNLCKPSPCMNEGSCVLQNGSYRCKCRDGWEGPHCE; listed as Homo sapiens)
12.5 µg/mL: MIC against P. mirabilis (Proteus mirabilis; [12]) | MIC against C. diversus (Citrobacter diversus; [12]) | MIC against K. pneumonia (Klebsiella pneumonia; [12]) | MIC (E. coli DH5α)
50 µg/mL: MIC against E. cloacae (Enterobacter cloacae; [12]) | MIC against P. vulgaris (Proteus vulgaris; [12]) | MIC against M. catarrhalis (Moraxella catarrhalis; [12]) | MIC against P. aeruginosa (Pseudomonas aeruginosa; [12])
25 µg/mL: MIC against A. hydrophila (Aeromonas hydrophila; [12]) | MIC against S. marcescens (Serratia marcescens; [12]) | MIC against E. coli BL21 (E. coli BL21; [13])

PRT1287 (EPCRKLYCLHGICQPNATPGPMCHCEAGWVGLHCD; listed as Homo sapiens)
12.5 µg/mL: MIC against P. mirabilis (Proteus mirabilis; [1]) | MIC against C. diversus (Citrobacter diversus; [1]) | MIC against E. cloacae (Enterobacter cloacae; [1]) | MIC against P. aeruginosa (Pseudomonas aeruginosa; [1])
50 µg/mL: MIC against P. vulgaris (Proteus vulgaris; [1]) | MIC against A. hydrophila (Aeromonas hydrophila; [1]) | MIC against S. marcescens (Serratia marcescens; [1]) | MIC against K. pneumonia (Klebsiella pneumonia; [1]) | MIC against M. catarrhalis (Moraxella catarrhalis; [1]) | MIC (E. coli DH5α)
25 µg/mL: MIC against E. coli BL21 (E. coli BL21; [14])

PRT978 (DVDECASQPCQHGGSCIDLVARYLCSCPPGTLGVLCE; listed as Homo sapiens)
25 µg/mL: MIC (Proteus mirabilis; [15]) | MIC (Aeromonas hydrophila; [19])
12.5 µg/mL: MIC (Enterobacter cloacae; [17]) | MIC (Serratia marcescens; [20]) | MIC (Moraxella catarrhalis; [22]) | MIC (Pseudomonas aeruginosa; [23]) | MIC (E. coli DH5α)
50 µg/mL: MIC (Citrobacter diversus; [16]) | MIC (Proteus vulgaris; [18]) | MIC (Klebsiella pneumonia; [21]) | MIC (E. coli BL21; [24])

PRT936 (VLAPCSPNPCENAAVCKESPNFESYTCLCAPGWQGQRCT; listed as Homo sapiens)
25 µg/mL: MIC (Aeromonas hydrophila; [19]) | MIC (Pseudomonas aeruginosa; [23]) | MIC (E. coli DH5α)
12.5 µg/mL: MIC (Enterobacter cloacae; [17]) | MIC (Proteus vulgaris; [18]) | MIC (Moraxella catarrhalis; [22]) | MIC (E. coli BL21; [24])
50 µg/mL: MIC (Proteus mirabilis; [15]) | MIC (Citrobacter diversus; [16]) | MIC (Serratia marcescens; [20]) | MIC (Klebsiella pneumonia; [21])

PRT1107 (LMPLCWSKPCHNNATCEDSVDNYTCHCWPGYTGAQCE; listed as Homo sapiens)
12.5 µg/mL: MIC P. vulgaris (Proteus vulgaris; [25]) | MIC A. hydrophila (Aeromonas hydrophila; [25]) | MIC M. catarrhalis (Moraxella catarrhalis; [25]) | MIC P. aeruginosa (Pseudomonas aeruginosa; [25]) | MIC (E. coli DH5α)
50 µg/mL: MIC P. mirabilis (Proteus mirabilis; [25]) | MIC C. diversus (Citrobacter diversus; [25]) | MIC K. pneumonia (Klebsiella pneumonia; [25]) | MIC E. coli BL21 (E. coli BL21; [25])
25 µg/mL: MIC E. cloacae (Enterobacter cloacae; [25]) | MIC S. marcescens (Serratia marcescens; [25])

PRT265 (CQDGHGGCSEHANCSQVGTMVTCTCLPDYEGDGWSC; listed as Homo sapiens)
50 µg/mL: MIC (μg/mL) P. vulgaris (Proteus vulgaris; [5])
25 µg/mL: MIC (μg/mL) P. mirabilis (Proteus mirabilis; [2]) | MIC (μg/mL) C. diversus (Citrobacter diversus; [3]) | MIC (μg/mL) E. cloacae (Enterobacter cloacae; [4]) | MIC (μg/mL) S. marcescens (Serratia marcescens; [7]) | MIC (μg/mL) M. catarrhalis (Moraxella catarrhalis; [9]) | MIC (μg/mL) P. aeruginosa (Pseudomonas aeruginosa; [10]) | MIC (E. coli DH5α)
12.5 µg/mL: MIC (μg/mL) A. hydrophila (Aeromonas hydrophila; [6]) | MIC (μg/mL) K. pneumonia (Klebsiella pneumonia; [8]) | MIC (μg/mL) E. coli BL21 (E. coli BL21; [11])
